Test results taken from paper PMC9700728 (Nature Communications, 2022).
One block for each molecule: values may come before it.

What was measured:
BC2L-C-CTD = biological target: T1, BC2L-C-CTD (Burkholderia cenocepacia, UniProt B4EH86); experiment: isothermal titration calorimetry; assay type: binding; details: 20 mM HEPES-NaOH pH 8.0, 200 mM NaCl, 25 °C
T1 construct: gene BCAM0185; C-terminal domain of BC2L-C, N-terminal 6xHis-tag (modified pET28), expressed in E. coli BL21(DE3)
Excerpt: isothermal titration calorimetry on BC2L-C-CTD | BC2L-C-CTD bound only to mannose

[1] = biological target: T2, rThC (recombinant thrombocorticin, ThC) (unclassified Corticium (in: sponges), UniProt C0HM62); experiment: inhibition of rThC-induced Ba/F3-HuMpl cell proliferation; assay type: cell-based; details: rThC 1 μg/mL, RPMI-1640 with 10% FBS, 37 °C, 4 days; competes with MPL glycan
T2 construct: N-terminal 6xHis-tag (modified pET28), expressed in E. coli BL21(DE3); 131 residues, 14 kDa; homodimer, sugar site at protomer interface
T2 sequence (C0HM62 1-131): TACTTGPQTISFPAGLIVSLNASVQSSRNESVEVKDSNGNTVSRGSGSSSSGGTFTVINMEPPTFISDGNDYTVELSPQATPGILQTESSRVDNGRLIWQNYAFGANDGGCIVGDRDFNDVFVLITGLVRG

[2] = biological target: T2, rThC (recombinant thrombocorticin, ThC); experiment: isothermal titration calorimetry; assay type: binding; details: 5 mM CaCl2, 20 mM HEPES-NaOH pH 8.0, 200 mM NaCl, 25 °C; Ca2+-mediated site at dimer interface
[3] = biological target: human thrombopoietin receptor MPL on Ba/F3-HuMpl cells (human) (UniProt P40238)
[4] = biological target: T3, human thrombopoietin receptor MPL on Ba/F3-HuMpl cells (human, UniProt P40238 26-635); experiment: cell-based or functional assay
T3 sequence (looked up): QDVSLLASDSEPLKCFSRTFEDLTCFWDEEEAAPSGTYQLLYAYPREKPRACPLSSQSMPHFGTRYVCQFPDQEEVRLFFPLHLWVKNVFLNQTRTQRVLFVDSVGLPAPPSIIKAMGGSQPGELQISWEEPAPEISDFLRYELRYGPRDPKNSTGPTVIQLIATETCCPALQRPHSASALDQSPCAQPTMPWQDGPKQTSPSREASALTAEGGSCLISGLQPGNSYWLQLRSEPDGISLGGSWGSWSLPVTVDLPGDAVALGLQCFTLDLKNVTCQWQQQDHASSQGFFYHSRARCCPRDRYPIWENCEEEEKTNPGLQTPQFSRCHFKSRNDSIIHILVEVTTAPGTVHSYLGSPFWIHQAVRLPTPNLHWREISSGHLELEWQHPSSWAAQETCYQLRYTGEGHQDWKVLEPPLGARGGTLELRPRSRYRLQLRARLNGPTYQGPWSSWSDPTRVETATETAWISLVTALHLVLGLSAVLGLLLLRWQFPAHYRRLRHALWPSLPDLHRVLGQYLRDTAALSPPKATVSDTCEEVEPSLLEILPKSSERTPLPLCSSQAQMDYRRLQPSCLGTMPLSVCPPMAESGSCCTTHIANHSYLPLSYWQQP

Molecule: OC[C@H]1OC(O)[C@@H](O)[C@@H](O)[C@@H]1O (stereo partly drawn) [D-mannose]
Kd (BC2L-C-CTD): 17.7 ± 0.32 µM
IC50 [1]: 6460 µM
KD [2]: 66.2 × 10 µM

IC50 [1]: 22.8 µM
Kd [2]: 4.72 µM
Molecule: C[C@@H]1OC(O)[C@@H](O)[C@H](O)[C@@H]1O (stereo partly drawn) [L-fucose]

Molecule: PA-IIL (from UniProt Q9HYN5 1-115) (natural protein)
proliferation of Ba/F3-HuMpl cells, EC50 [3]: 18.1 µg/mL

proliferation of Ba/F3-HuMpl cells, EC50 [4]: 0.26 µg/mL
B1: N-terminal His-tagged recombinant thrombocorticin (wild type) (natural protein, UniProt C0HM62 1-131, looked up)
chain: TACTTGPQTISFPAGLIVSLNASVQSSRNESVEVKDSNGNTVSRGSGSSSSGGTFTVINMEPPTFISDGNDYTVELSPQATPGILQTESSRVDNGRLIWQNYAFGANDGGCIVGDRDFNDVFVLITGLVRG
